Test results reported in patent US20220242872A1, “E3 LIGASE BINDERS AND USES THEREOF” (DANA-FARBER CANCER INSTITUTE, INC., priority 2019, published 2022).
Entries after “also recorded” stand apart in the source; their conditions may differ.

Legend:
IKZF1 [1] = target: T1, IKZF1 (Homo sapiens, UniProt Q13422+Q96SW2); assay: 24 hour IKZF Western Blot in Jurkat cells (FIG. 5), IKZF1; assay type: cell-based; design: endogenous in cells; host or cells: Jurkat
Procedure: (§1) Exemplary close analogues had low activity against CRBN (FIG. 4). For the IKZF Western Blot, the cell is Jurkat, the exemplary compounds for treatment are JADA3, 32, 53, and lenalidomide, and the time point is 24 hours (FIG. 5).
(§2) Conditions for Western blot:
(§3) Jurkat cells were seeded in 6 well plates, followed by the compound treatment for 24 hours. Primary and secondary antibodies used included anti-IKZF1 at 1:1000 dilution, anti-IKZF2 at 1:1,000 dilution, anti-IKZF3 at 1:1000 dilution, anti-ACTIN at 1:5,000 dilution, IRDye®680 Donkey anti-mouse at 1:5,000 dilution (926-68072, LiCor®, Lot: C61116-05) and IRDye®800 Goat anti-rabbit at 1:5,000 dilution (926-32211, LiCor®, Lot: C70301-05).

IKZF1 [2] = target: T1, IKZF1; assay: Degradation of IKZF upon 24 hours treatment (FIG. 3); assay type: cell-based; design: endogenous in cells; details: 293T WT cells (legend also says Jurkat WT)
Procedure: (§4) The results of an assay for CRBN binding (and degradation of IKZF or actin) upon treatment for 24 hours with exemplary compounds Qi-01-68, JADA53, and positive control lenalidomide (at the indicated concentrations in μM) in 293T WT cells (homo sapiens kidney cell line; wild type) are shown in FIG. 3.

CRBN [3] = target: T2, CRBN (Homo sapiens, UniProt Q96SW2); assay: CRBN Fluorescence Polarization (FP) displacement assay; assay type: binding; design: His6 (N); details: displacement of Atto565-lenalidomide from DDB1ΔB-CRBN; FIGS. 1, 4, 6A, 7
Procedure: Conditions for CRBN Fluorescence Polarization (FP) displacement assay: Atto565-conjugated lenalidomide (10 nM) was mixed with increasing concentration of purified his6-DDB1AB-his6—CRBN (10 μM final top concentration, 2-fold, 23-point dilution and DMSO control) in 384-well microplates (Corning, 4514) and incubated for 15 minutes (min) at room temperature (rt). The change in fluorescence polarization was monitored using a PHERAstar® FS microplate reader (BMG Labtech) for 20 min in 120 s cycles. The Atto565-lenalidomide bound fraction was calculated and the Kd was obtained from a fit in GraphPad Prism 7. Compounds in Atto565-Lenalidomide displacement assay were dispensed in a 384-well microplate (Corning®, 4514) using D300e Digital Dispenser (HP) normalized to 2% DMSO into 10 nM Atto565-Leanlidomide, 100 nM DDB1ΔB-CRBN, 50 mM Tris pH 7.5, 200 mM NaCl, 0.1% Pluronic® F-68 solution (Sigma), 0.5 mg/ml BSA (Sigma) containing 2% DMSO (4% DMSO final). The change in fluorescence polarization was monitored using a PHERAstar® FS microplate reader (BMG Labtech) for 20 min in 200 s cycles. IC50 values estimated using variable slope equation in GraphPad Prism 7.

CRBN [4] = target: T2, CRBN; assay: Assay for CRBN binding in the cell, 24 hours treatment (FIG. 3); assay type: cell-based; design: endogenous in cells; details: 293T WT cells (legend also says Jurkat WT)
Procedure: as §4

IKZF3 = target: T3, IKZF3 (Homo sapiens, UniProt Q96SW2+Q9UKT9); assay: 24 hour IKZF Western Blot in Jurkat cells (FIG. 5), IKZF3; assay type: cell-based
T3 construct: endogenous in cells; host or cells: Jurkat
Procedure: as §1, §2, §3

T1 sequence (Q13422 whole entry): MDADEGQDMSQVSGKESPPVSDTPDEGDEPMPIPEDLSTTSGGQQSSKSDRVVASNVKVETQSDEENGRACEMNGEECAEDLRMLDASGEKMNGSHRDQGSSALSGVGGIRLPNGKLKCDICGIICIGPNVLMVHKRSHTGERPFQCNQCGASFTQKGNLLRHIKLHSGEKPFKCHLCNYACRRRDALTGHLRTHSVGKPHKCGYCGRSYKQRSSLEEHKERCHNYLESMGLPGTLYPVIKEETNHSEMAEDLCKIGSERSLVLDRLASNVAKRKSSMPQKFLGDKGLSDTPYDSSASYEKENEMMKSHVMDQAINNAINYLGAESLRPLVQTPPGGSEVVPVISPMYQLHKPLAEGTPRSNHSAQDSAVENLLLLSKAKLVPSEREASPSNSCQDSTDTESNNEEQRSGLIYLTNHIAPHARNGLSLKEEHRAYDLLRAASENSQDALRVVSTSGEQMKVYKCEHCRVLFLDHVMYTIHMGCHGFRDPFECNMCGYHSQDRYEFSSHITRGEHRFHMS
T1 sequence (Q96SW2 whole entry): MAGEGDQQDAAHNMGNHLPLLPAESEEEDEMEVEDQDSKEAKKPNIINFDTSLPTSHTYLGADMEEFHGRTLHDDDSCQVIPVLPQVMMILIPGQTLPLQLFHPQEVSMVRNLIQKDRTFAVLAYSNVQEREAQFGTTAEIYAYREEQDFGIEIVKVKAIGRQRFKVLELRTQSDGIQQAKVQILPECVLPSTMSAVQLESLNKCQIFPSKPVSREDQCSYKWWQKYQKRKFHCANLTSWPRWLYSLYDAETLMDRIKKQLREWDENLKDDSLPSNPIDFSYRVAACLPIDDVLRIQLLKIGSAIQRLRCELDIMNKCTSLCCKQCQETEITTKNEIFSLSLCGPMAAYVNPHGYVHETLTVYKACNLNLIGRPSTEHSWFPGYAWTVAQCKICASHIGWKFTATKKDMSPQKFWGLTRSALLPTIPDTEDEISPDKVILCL
T1 sequence (Q16531 whole entry partner): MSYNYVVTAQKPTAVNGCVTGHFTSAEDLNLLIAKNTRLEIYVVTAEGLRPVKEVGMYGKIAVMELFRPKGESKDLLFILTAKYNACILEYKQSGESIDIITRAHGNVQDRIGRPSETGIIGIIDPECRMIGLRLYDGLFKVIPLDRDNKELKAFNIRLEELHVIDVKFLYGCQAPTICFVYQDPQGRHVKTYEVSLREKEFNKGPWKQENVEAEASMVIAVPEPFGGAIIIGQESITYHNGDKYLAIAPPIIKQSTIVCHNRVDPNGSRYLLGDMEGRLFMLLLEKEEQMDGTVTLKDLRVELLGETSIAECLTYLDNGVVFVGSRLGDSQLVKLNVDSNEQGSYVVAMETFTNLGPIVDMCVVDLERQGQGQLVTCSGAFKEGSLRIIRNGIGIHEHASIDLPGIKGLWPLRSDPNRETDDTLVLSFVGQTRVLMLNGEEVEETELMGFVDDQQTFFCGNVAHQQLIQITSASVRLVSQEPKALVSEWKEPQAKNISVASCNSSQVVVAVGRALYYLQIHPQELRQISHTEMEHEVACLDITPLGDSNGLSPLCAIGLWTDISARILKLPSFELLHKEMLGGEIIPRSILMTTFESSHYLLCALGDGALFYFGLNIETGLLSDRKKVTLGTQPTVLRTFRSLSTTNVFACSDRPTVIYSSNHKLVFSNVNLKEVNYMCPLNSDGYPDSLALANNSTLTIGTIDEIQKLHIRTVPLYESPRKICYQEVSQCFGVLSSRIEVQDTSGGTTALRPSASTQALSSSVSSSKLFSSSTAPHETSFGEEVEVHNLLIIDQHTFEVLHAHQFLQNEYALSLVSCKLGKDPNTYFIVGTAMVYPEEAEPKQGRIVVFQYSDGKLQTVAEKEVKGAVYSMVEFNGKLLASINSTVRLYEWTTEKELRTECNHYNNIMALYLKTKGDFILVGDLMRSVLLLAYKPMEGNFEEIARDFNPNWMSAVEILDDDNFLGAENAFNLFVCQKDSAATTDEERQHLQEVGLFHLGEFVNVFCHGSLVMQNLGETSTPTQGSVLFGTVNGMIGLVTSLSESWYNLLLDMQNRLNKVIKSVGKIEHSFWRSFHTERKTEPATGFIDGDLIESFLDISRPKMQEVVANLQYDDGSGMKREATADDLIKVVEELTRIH
T2 sequence (Q96SW2 whole entry): as the sequence (Q96SW2 whole entry) above
T3 sequence (Q9UKT9 whole entry): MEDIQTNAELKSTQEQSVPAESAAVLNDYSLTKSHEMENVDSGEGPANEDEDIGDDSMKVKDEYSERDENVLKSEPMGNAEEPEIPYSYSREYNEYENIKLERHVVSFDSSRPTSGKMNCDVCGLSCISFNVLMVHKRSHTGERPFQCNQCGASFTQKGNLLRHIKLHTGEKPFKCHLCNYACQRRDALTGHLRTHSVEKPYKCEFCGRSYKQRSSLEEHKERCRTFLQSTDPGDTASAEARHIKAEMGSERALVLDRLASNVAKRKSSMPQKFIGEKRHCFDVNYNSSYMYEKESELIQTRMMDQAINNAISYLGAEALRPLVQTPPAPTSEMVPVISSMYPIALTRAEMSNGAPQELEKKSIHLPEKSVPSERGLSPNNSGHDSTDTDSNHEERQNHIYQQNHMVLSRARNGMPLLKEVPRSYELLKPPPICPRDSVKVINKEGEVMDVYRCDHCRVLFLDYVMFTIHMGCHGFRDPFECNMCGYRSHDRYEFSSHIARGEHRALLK
T3 sequence (Q96SW2 whole entry): as the sequence (Q96SW2 whole entry) above
T3 sequence (Q16531 whole entry partner): as the sequence (Q16531 whole entry partner) above

- degradation of IKZF1 in cells (Western Blot) (IKZF1 [1]): degraded
- CRBN binding activity (FP displacement) (CRBN [3]): binds CRBN
- binding of target CRBN in the cell (CRBN [4]): good binding
- degradation of IKZF3 in cells (Western Blot) (IKZF3): degraded
Compound: Cc1[nH]c2c(-c3cnn(-c4cc(OCCN)ccn4)c3)cnn2c(=O)c1C(C)C [JADA53]
- degradation of IKZF / IKZF1 in cell (IKZF1 [2]): can degrade IKZF; also recorded: degraded IKZF
